Test results reported in patent US20070129419A1, “Serotonin transporter (SERT) inhibitors for the treatment of depression and anxiety” (priority 2005, published 2007).
Like-named read-outs stand apart in the source and are kept apart here.

What was measured:
[1] = target: T1, recombinant human SERT (Homo sapiens, UniProt P31645); assay: hSERT SPA binding assay ([3H]citalopram displacement, HEK-293 membranes)
T1 construct: expressed in transfected cells; membrane preparation
Experimental: HEK-293 cells stably expressing recombinant human SERT are maintained with DMEM high glucose with 10% FBS, 300 μg/ml G418 and 2 mM L-Glutamine and incubated at 37° C. with 5% CO2. Cells are released from culture flasks using PBS for 1-2 min. The cells are subsequently centrifuged at 1000 g's for 5 min and resuspended in PBS prior to being used in the membrane preparation.
Cells are homogenized using a Polytron in 50 mM Tris (pH 7.4). Centrifuged at 48,000×g for 15 min, and the pellet resuspended in fresh buffer. After a second centrifugation, the pellet is re-homogenized and resuspended in fresh buffer. Typically, membrane portions are aliquoted in 3 mg/ml (w:v). and stored at −80° C.
A serial dilution of test compounds in 50 mM Tris-HCl, 120 mM NaCl, KCl 5 mM (pH 7.4) is made in a white Optiplate (Packard) (100 μl/well) and the radioligand ^3[H] Citalopram (Specific activity: 60-86 Ci/mmol, Final concentration: 1 nM) is added at 50 μl/well. Membrane and beads are prepared to a ratio of 5 μg:0.6 mg, with 0.6 mg PVT-WGA Amersham beads (Cat#RPQ0282V) added per well. 50 μl of the membrane/bead mixture is added to the assay plate for a final volume of 200 μl. The mixtures are allowed to stand at room temperature for one hour, and are then counted on a Packard TopCount.
The % inhibition is calculated for each compound tested (with 100% binding being the value obtained with the incubation of membrane/beads and radioligand in buffer without compound minus the non-specific binding measured in presence of 10 μM Fluoxetine). The concentration producing 50% inhibition (IC50) is determined using an iterative non-linear curve fitting technique. The inhibition dissociation constant (Ki) of each compound is determined according to the method of Cheng-Prusoff, decribed in Biochem. Pharmacol., 1973, 22(23), pages 3099-3108.

[2] = target: T2, human NK-1 receptor (Homo sapiens, UniProt P25103); assay: hNK-1 binding assay ([3H]substance P displacement, CHO cells); conditions: [3H]substance P 0.6 nM, CHO cells transfected with human NK-1 receptor; read-out: pKi hNK1 (converted)
T2 construct: expressed in transfected cells; host or cells: CHO cells, Semliki virus expression system; membrane suspension
Experimental: The affinity of test compounds for the NK-1 receptor was evaluated at human NK-1 receptors in CHO cells transfected with the human NK-1 receptor using the Semliki virus expression system and radiolabelled with [^3H]substance P (final concentration 0.6 nM). Binding assays were performed in HEPES buffer (50 mM, pH 7.4) containing BSA (0.04%) leupeptin (8 μg/ml), MnCl2 (3 mM) and phosphoramidon (2 μM). Binding assays consisted of 250 μl of membrane suspension (1.25×10^5 cells/assay tube), 125 μl of buffer of displacing agent and 125 μl of [^3H]substance P. Displacement curves were determined with at least ten concentrations of the compound. The assay tubes were incubated for 60 min at room temperature after which time the tube contents were rapidly filtered under vacuum through GF/C filters presoaked for 60 min with PEI (0.3%) with 2×2 ml washes of HEPES buffer (50 mM, pH 7.4). The radioactivity retained on the filters was measured by scintillation counting. All assays were performed in duplicate in at least 2 separate experiments.
The inhibition dissociation constant (Ki) of each compound for NK1 is determined as described above for hSERT.

[3] = [3H]citalopram 1 nM, HEK-293 membranes expressing human SERT, read-out: pKi hSERT (converted)

T1 sequence (P31645 whole entry): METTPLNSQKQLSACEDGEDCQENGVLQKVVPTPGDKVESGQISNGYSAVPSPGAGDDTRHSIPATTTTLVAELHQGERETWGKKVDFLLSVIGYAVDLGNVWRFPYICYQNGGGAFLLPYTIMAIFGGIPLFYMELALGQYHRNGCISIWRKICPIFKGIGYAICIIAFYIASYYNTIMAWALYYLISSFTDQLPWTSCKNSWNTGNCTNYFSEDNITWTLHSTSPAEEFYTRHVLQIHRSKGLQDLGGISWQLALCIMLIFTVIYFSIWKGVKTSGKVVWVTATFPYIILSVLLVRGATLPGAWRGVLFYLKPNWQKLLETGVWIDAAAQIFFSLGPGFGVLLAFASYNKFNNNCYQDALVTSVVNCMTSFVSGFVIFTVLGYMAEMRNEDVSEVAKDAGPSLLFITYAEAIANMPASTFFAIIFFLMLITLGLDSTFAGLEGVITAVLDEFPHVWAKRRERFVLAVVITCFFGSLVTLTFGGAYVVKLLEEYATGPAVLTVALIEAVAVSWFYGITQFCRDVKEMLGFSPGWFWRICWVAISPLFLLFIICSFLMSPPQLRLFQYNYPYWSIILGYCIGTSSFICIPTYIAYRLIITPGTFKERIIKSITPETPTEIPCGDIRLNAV
T2 sequence (P25103 whole entry): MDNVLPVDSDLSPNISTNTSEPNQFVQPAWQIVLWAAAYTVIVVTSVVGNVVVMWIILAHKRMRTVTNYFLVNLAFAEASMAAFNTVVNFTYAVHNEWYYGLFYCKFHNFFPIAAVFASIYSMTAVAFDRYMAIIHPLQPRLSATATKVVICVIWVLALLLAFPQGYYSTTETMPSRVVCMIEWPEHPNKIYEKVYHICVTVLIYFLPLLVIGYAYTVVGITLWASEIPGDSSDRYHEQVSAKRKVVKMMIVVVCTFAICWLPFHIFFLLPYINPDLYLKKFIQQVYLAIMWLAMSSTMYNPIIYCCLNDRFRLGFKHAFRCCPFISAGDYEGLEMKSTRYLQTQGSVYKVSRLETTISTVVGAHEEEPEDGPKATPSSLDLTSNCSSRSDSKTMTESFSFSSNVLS

| Structure (SMILES) | Ki [1, 3] [µM] | Ki [2] [µM] | Ki [1] [µM] |
| --- | --- | --- | --- |
| COc1cc(COC[C@H]2CNC[C@H]2c2ccccc2)cc(OC)c1 [14 of I] | 0.0204 | 0.741 |  |
| FC(F)(F)c1cc(COC[C@H]2CNC[C@H]2c2ccc(Cl)cc2)cc(C(F)(F)F)c1 [4 of I] | 0.00447 | 0.0537 |  |
| Cc1cc(C)cc(COC[C@H]2CNC[C@H]2c2ccccc2)c1 [10 of I] | 0.00457 | 0.257 |  |
| FC(F)(F)c1cc(COC[C@H]2CNC[C@H]2c2ccccc2)cc(C(F)(F)F)c1 [8 of I] | 0.0049 | 0.0437 |  |
| FC(F)(F)c1cccc(COC[C@H]2CNC[C@H]2c2ccccc2)c1 [12 of I] | 0.011 | 0.676 |  |
| FC(F)(F)c1cc(CNC[C@H]2CNC[C@H]2c2ccccc2)cc(C(F)(F)F)c1 [16 of I] | 0.0229 | 0.0263 |  |
| FC(F)(F)c1cc(COC[C@H]2CNC[C@H]2c2cccc(Cl)c2)cc(C(F)(F)F)c1 [5 of I] | 0.00813 | 0.0316 |  |
| FC(F)(F)Oc1cccc(COC[C@H]2CNC[C@H]2c2ccccc2)c1 [13 of I] | 0.0138 | 0.759 |  |
| Fc1cc(COC[C@H]2CNC[C@H]2c2ccccc2)cc(C(F)(F)F)c1 [11 of I] | 0.00575 | 0.224 |  |
| Fc1ccc([C@@H]2CNC[C@@H]2COCc2cc(C(F)(F)F)cc(C(F)(F)F)c2)cc1 [1 of I] |  | 0.295 | 0.00275 |
| Fc1cccc([C@@H]2CNC[C@@H]2COCc2cc(C(F)(F)F)cc(C(F)(F)F)c2)c1 [2 of I] | 0.00589 | 0.0468 |  |
| FC(F)(F)c1ccccc1COC[C@H]1CNC[C@H]1c1ccccc1 [15 of I] | 0.0708 | 0.646 |  |
| CN(Cc1cc(C(F)(F)F)cc(C(F)(F)F)c1)C[C@H]1CNC[C@H]1c1ccccc1 [17 of I] | 0.00813 | 0.0316 |  |
| Cc1ccccc1[C@@H]1CNC[C@@H]1COCc1cc(C(F)(F)F)cc(C(F)(F)F)c1 [7 of I] | 0.00759 | 0.0288 |  |
| Fc1ccccc1[C@@H]1CNC[C@@H]1COCc1cc(C(F)(F)F)cc(C(F)(F)F)c1 [3 of I] | 0.00347 | 0.0501 |  |
| FC(F)(F)c1cc(COC[C@H]2CNC[C@H]2c2ccccc2Cl)cc(C(F)(F)F)c1 [6 of I] | 0.0102 | 0.0437 |  |
| Brc1cc(Br)cc(COC[C@H]2CNCC2c2ccccc2)c1 (stereo partly shown) [9 of I] | 0.00589 | 0.0417 |  |
